Laboratory results reported in paper PMC11599936, “New-to-nature CO2-dependent acetyl-CoA assimilation enabled by an engineered B12-dependent acyl-CoA mutase” (Nature Communications, 2024).

Key:
Type in all cases: biochemical
[1] = target: T1, 2-hydroxyisobutyryl-CoA mutase from Aquincola tertiaricarbonis (Aquincola tertiaricarbonis, UniProt I3VE74+I3VE77); test: coupled PhaJ/Etr1p assay, NADPH at […] nm; details: 12.5 µM coenzyme B12, 50 mM NaPO4 pH 7, 30 °C
T1 construct: gene hcmA
T1 sequence (I3VE77 1-562): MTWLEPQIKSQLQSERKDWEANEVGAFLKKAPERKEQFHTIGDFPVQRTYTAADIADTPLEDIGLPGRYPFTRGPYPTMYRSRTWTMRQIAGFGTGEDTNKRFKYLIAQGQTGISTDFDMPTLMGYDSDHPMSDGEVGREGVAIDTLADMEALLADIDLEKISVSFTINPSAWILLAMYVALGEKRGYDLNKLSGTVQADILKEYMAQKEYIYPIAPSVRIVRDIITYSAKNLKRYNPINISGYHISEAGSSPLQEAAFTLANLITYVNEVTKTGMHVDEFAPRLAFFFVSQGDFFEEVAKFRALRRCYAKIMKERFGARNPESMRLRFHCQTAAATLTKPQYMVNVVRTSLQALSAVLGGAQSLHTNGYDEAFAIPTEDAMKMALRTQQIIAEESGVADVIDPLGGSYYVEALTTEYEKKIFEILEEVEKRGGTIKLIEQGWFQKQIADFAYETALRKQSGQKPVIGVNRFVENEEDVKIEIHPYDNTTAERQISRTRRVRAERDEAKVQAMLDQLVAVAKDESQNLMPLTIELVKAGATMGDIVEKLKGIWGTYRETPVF
T1 sequence (I3VE74 1-136): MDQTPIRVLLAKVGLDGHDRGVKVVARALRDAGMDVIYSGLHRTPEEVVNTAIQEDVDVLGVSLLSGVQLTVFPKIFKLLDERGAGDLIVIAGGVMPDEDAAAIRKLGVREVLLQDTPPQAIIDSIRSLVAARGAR

Pct = target: T2, Pct (Cupriavidus necator, UniProt Q0K874); test: LC-MS CoA-transfer assay; details: 100 mM HEPES pH 7.5, 10 mM MgCl2, 30 °C
T2 construct: recombinant from E. coli BL21 (DE3), Ni-NTA purified
T2 sequence (Q0K874 1-542): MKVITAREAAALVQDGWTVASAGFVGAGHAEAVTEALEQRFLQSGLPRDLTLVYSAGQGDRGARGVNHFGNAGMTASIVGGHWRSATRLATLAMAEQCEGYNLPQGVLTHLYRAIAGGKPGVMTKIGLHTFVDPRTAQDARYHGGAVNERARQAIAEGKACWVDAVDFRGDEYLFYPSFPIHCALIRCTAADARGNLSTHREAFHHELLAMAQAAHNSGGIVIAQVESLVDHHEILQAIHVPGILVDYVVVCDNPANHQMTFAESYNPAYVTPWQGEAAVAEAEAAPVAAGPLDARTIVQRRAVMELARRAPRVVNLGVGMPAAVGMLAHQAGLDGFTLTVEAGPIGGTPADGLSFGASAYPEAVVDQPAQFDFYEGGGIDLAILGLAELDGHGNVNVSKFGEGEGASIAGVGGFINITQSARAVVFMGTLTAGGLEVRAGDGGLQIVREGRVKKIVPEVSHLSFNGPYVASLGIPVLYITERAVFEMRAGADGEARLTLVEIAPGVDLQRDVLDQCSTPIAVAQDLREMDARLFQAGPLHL

AbfT = target: T3, AbfT (Clostridium aminobutyricum, UniProt Q9RM86); test: LC-MS CoA-transfer assay; details: 100 mM HEPES pH 7.5, 10 mM MgCl2, 30 °C
T3 construct: recombinant from E. coli BL21 (DE3), Ni-NTA purified
T3 sequence (Q9RM86 1-438): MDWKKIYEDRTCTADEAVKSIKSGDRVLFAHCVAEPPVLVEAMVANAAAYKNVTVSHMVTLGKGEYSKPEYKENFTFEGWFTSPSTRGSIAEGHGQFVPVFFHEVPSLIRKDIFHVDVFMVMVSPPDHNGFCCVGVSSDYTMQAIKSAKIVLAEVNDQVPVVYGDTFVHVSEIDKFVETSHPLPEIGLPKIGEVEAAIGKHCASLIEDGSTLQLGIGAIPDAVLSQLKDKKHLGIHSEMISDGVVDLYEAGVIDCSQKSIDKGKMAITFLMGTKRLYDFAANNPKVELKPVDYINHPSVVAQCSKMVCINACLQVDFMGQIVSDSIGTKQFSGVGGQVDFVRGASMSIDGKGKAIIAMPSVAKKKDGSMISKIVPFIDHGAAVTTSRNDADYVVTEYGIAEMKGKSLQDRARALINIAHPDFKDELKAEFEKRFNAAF

[2] = CoA donor acetyl-CoA 100 µM, 1 mM acid

CC(C)(O)C(=O)SCCNC(=O)CCNC(=O)[C@H](O)C(C)(C)COP(=O)(O)OP(=O)(O)OC[C@H]1O[C@@H](n2cnc3c(N)ncnc32)[C@H](O)[C@@H]1OP(=O)(O)O [2-hydroxyisobutyryl-CoA]
coupled PhaJ/Etr1p assay, NADPH at 340 nm [1]: we confirmed functionality of this purified enzyme with its native substrate 2-hydroxyisobutyryl-CoA

O=C(O)CCO [3-hydroxypropionate]
LC-MS CoA-transfer assay (Pct; [2]): performed best with 3-HP as CoA-acceptor and acetyl-CoA as CoA-donor | LC-MS CoA-transfer assay (AbfT; [2]): performed best with 3-HP as CoA-acceptor and acetyl-CoA as CoA-donor

CC(=O)SCCNC(=O)CCNC(=O)[C@H](O)C(C)(C)COP(=O)(O)OP(=O)(O)OC[C@H]1O[C@@H](n2cnc3c(N)ncnc32)[C@H](O)[C@@H]1OP(=O)(O)O [acetyl-CoA]
LC-MS CoA-transfer assay (Pct; CoA acceptor 3-HP 1 mM): performed best with 3-HP as CoA-acceptor and acetyl-CoA as CoA-donor | LC-MS CoA-transfer assay (AbfT; CoA acceptor 3-HP 1 mM): performed best with 3-HP as CoA-acceptor and acetyl-CoA as CoA-donor
